# System: HEK293Tmtkeima cells
# Assay: Functional test of mitophagy inducer (mtKeima imaging, with or without CCCP-induced mitochondrial damage)
# Format: cell-based, Human
# Details: HEK293Tmtkeima cells, 5 uM or 10 uM CCCP to induce mitochondrial damage; number of cells in which damaged mitophagy occurs/number of all cells
# Procedure: Group 1: Human embryonic kidney transformed cells HEK293Tmtkeima cells were treated with 0 μM, 1.25 μM, 2.5 μM, 5 μM and 10 μM CCCP respectively, and seeded in a 96-well black ELISA PLATE at 1.5*10^5 cells/ml, 100 μL per well. Compound I-2 was added after 25 hours, and 3 replicates were set. At 37° C., under 5% CO2 incubation conditions, photographs were taken every few hours with biotek cytation 5 for a total of 20 hours, with the bright field as the focusing channel, and 9 images were taken per hole, and the images were processed using the instrument software.
# Group 2: Human embryonic kidney transformed cells HEK293Tmtkeima cells were seeded in a 96-well black ELISA PLATE at […], 100 μL per well; compounds I-1˜I-44 and UMI-77 were added after 25 hours, set up 3 replicates; under 37° C., 5% CO2 culture conditions, use biotek every few hours Cytation 5 was used to take photos, a total of 20 hours of shooting. In another group of cells under the same conditions, human embryonic kidney-transformed cells HEK293Tmtkeima cells were seeded in a 96-well black enzyme plate at 1.5*10^5 cells/ml, 100 μl per well; after 24 hours, 5 uM or 10 uM CCCP (Carbonyl cyanide) was first added 3-chlorophenylhydrazone) to induce mitochondrial damage, then add I-1˜I-44, UMI-77 1 hour later, set up 3 repetitions; under 37° C., 5% CO2 culture conditions, pictures were taken every few hours with biotek cytation 5, photographs were taken for 20 hours. Another group of human embryonic kidney transformed cells HEK293Tmtkeima cells was seeded at 1.5*10^5 cells/ml in 96-well black ELISA PLATE at 100 μl per well under the same conditions, 24 hours later 5 uM or 10 uM CCCP (Carbonyl cyanide 3-chlorophenylhydrazone) was first added to induce mitochondrial damage, after 1 hour then add I-1 to I-44, UMI-77 and set up 3 replicates. At 37° C., under 5% CO2 incubation conditions, pictures were taken every few hours with biotek cytation 5, photographs were taken for 20 hours, with the bright field as the focusing channel for both groups, and 9 images were taken per hole, and the images were processed using the instrument software.
row,SMILES,The ability of selection to induce autophagy in damaged mitochondria
1,CN=S(=O)(c1ccc(Br)cc1)N(C)c1cc([S+]([O-])CC(=O)O)c(O)c2ccccc12 (stereo not drawn) [Compound I-26],++ (moderate ability to selectively induce autophagy in damaged mitochondria (number of cells in which damaged mitophagy occurs/number of all cells in the range of 0.2 to 0.3))
2,O=C(O)CS(=O)(=O)c1cc(NS(=O)(=O)c2cccc(-c3ccccc3)c2)c2ccccc2c1O [Compound I-23-2],++ (moderate ability to selectively induce autophagy in damaged mitochondria (number of cells in which damaged mitophagy occurs/number of all cells in the range of 0.2 to 0.3))
3,O=C(O)C[S+]([O-])c1cc(NS(=O)(=O)c2ccc(Oc3ccccc3)cc2)c2ccccc2c1O (stereo not drawn) [Compound I-16-1],++ (moderate ability to selectively induce autophagy in damaged mitochondria (number of cells in which damaged mitophagy occurs/number of all cells in the range of 0.2 to 0.3))
4,Cc1noc(C)c1S(=O)(=O)Nc1cc([S+]([O-])CC(=O)O)c(O)c2ccccc12 (stereo not drawn) [Compound I-37],++ (moderate ability to selectively induce autophagy in damaged mitochondria (number of cells in which damaged mitophagy occurs/number of all cells in the range of 0.2 to 0.3))
5,O=C(O)C[S+]([O-])c1cc(NS(=O)(=O)c2ccc([N+](=O)[O-])cc2)c2ccccc2c1O (stereo not drawn) [Compound I-22-1],+ (weak ability to selectively induce autophagy in damaged mitochondria (number of cells in which damaged mitophagy occurs/number of all cells in the range of 0.1 to 0.2))
6,O=C(O)CS(=O)(=O)c1cc(NS(=O)(=O)c2ccc(C(F)(F)F)cc2)c2ccccc2c1O [Compound I-14-2],++ (moderate ability to selectively induce autophagy in damaged mitochondria (number of cells in which damaged mitophagy occurs/number of all cells in the range of 0.2 to 0.3))
7,O=C(O)C[S+]([O-])c1cc(NS(=O)(=O)c2ccc(N3CCCC3)cc2)c2ccccc2c1O (stereo not drawn) [Compound I-18-1],+ (weak ability to selectively induce autophagy in damaged mitochondria (number of cells in which damaged mitophagy occurs/number of all cells in the range of 0.1 to 0.2))
8,O=S(=O)(Nc1cc([S+]([O-])Cc2nnc[nH]2)c(O)c2ccccc12)c1ccc(Br)cc1 (stereo not drawn) [Compound I-8],+++ (strong ability to selectively induce autophagy in damaged mitochondria (number of cells in which damaged mitophagy occurs/number of all cells >0.30))
9,O=C(O)C[S+]([O-])c1cc(NS(=O)(=O)c2ccc(Br)cc2)c2cc(Br)ccc2c1O (stereo not drawn) [Compound I-29],+++ (strong ability to selectively induce autophagy in damaged mitochondria (number of cells in which damaged mitophagy occurs/number of all cells >0.30))
10,O=C(O)C[S+]([O-])c1cc(NS(=O)(=O)c2ccc(C(F)(F)F)cc2)c2ccccc2c1O (stereo not drawn) [Compound I-14-1],++ (moderate ability to selectively induce autophagy in damaged mitochondria (number of cells in which damaged mitophagy occurs/number of all cells in the range of 0.2 to 0.3))
11,O=C(O)C[S+]([O-])c1cc(NS(=O)(=O)c2cccs2)c2ccccc2c1O (stereo not drawn) [Compound I-13-1],+++ (strong ability to selectively induce autophagy in damaged mitochondria (number of cells in which damaged mitophagy occurs/number of all cells >0.30))
12,O=C(O)C[S+]([O-])c1cc(NS(=O)(=O)c2ccc(Cl)c(Cl)c2)c2ccccc2c1O (stereo not drawn) [Compound I-17-1],+++ (strong ability to selectively induce autophagy in damaged mitochondria (number of cells in which damaged mitophagy occurs/number of all cells >0.30))
13,O=C(O)C[S+]([O-])c1cc(NS(=O)(=O)c2ccc(C3CC3)cc2)c2ccccc2c1O (stereo not drawn) [Compound I-20-1],++ (moderate ability to selectively induce autophagy in damaged mitochondria (number of cells in which damaged mitophagy occurs/number of all cells in the range of 0.2 to 0.3))
14,COc1ccc(S(=O)(=O)Nc2cc([S+]([O-])CC(=O)O)c(O)c3ccccc23)cc1 (stereo not drawn) [Compound I-15-1],+ (weak ability to selectively induce autophagy in damaged mitochondria (number of cells in which damaged mitophagy occurs/number of all cells in the range of 0.1 to 0.2))
15,N#Cc1ccc2c(O)c([S+]([O-])CC(=O)O)cc(NS(=O)(=O)c3ccc(Br)cc3)c2c1 (stereo not drawn) [Compound I-31],+ (weak ability to selectively induce autophagy in damaged mitochondria (number of cells in which damaged mitophagy occurs/number of all cells in the range of 0.1 to 0.2))
16,O=C(O)C[S+]([O-])c1cc(N(C2COC2)S(=O)(=O)c2ccc(Br)cc2)c2ccccc2c1O (stereo not drawn) [Compound I-4],+ (weak ability to selectively induce autophagy in damaged mitochondria (number of cells in which damaged mitophagy occurs/number of all cells in the range of 0.1 to 0.2))
17,Cn1cc(S(=O)(=O)Nc2cc([S+]([O-])CC(=O)CO)c(O)c3ccccc23)cn1 (stereo not drawn) [Compound I-36],++ (moderate ability to selectively induce autophagy in damaged mitochondria (number of cells in which damaged mitophagy occurs/number of all cells in the range of 0.2 to 0.3))
18,O=C(O)C[S+]([O-])c1cc(NS(=O)(=O)c2cc3ccccc3s2)c2ccccc2c1O (stereo not drawn) [Compound I-19-1],++ (moderate ability to selectively induce autophagy in damaged mitochondria (number of cells in which damaged mitophagy occurs/number of all cells in the range of 0.2 to 0.3))
19,NC(=O)C[S+]([O-])c1cc(NS(=O)(=O)c2ccc(Br)cc2)c2ccccc2c1O (stereo not drawn) [Compound I-5],+ (weak ability to selectively induce autophagy in damaged mitochondria (number of cells in which damaged mitophagy occurs/number of all cells in the range of 0.1 to 0.2))
20,O=C(O)C[S+]([O-])c1cc(N2CCN=S2(=O)c2ccc(Br)cc2)c2ccccc2c1O (stereo not drawn) [Compound I-27],++ (moderate ability to selectively induce autophagy in damaged mitochondria (number of cells in which damaged mitophagy occurs/number of all cells in the range of 0.2 to 0.3))
21,O=C(O)C[S+]([O-])c1cc(N(C2CC2)S(=O)(=O)c2ccc(Br)cc2)c2ccccc2c1O (stereo not drawn) [Compound I-3],++ (moderate ability to selectively induce autophagy in damaged mitochondria (number of cells in which damaged mitophagy occurs/number of all cells in the range of 0.2 to 0.3))
22,O=C(O)C[S+]([O-])c1cc(N2CCCN=S2(=O)c2ccc(Br)cc2)c2ccccc2c1O (stereo not drawn) [Compound I-28],+ (weak ability to selectively induce autophagy in damaged mitochondria (number of cells in which damaged mitophagy occurs/number of all cells in the range of 0.1 to 0.2))
23,O=C(O)C[S+]([O-])c1cc(NS(=O)(=O)c2ccc(OC(F)(F)F)cc2)c2ccccc2c1O (stereo not drawn) [Compound I-21-1],+++ (strong ability to selectively induce autophagy in damaged mitochondria (number of cells in which damaged mitophagy occurs/number of all cells >0.30))
24,O=C(O)C[S+]([O-])c1cc(NC(=O)c2cccc(Br)c2)c2ccccc2c1O (stereo not drawn) [Compound I-35-1],+ (weak ability to selectively induce autophagy in damaged mitochondria (number of cells in which damaged mitophagy occurs/number of all cells in the range of 0.1 to 0.2))
